The nature of test [1]: Inhibition of N-terminal His6-tagged SARS-CoV-2 Main protease extracted from Escherichia coli BL21 (DE3) using MCA-Ala-Val-Leu-Gln-Ser-Gly-Phe-Arg-Lys(Dnp)-LsyNH2-trifluoroacetate salt as substrate incubated for 60 mins by FRET assay. More on the design: species or system Severe acute respiratory syndrome coronavirus 2.
Test [2] can be described thus: Inhibition of MERS-CoV Main protease using Dabcyl-KTSAVLQSGFRKM-Glu(Edans) as susbstrate measured for 1 hrs by fluorescence based analysis. More on the design: species or system Middle East respiratory syndrome-related coronavirus.
Another test has as its system SARS-CoV-2. Briefly: Antiviral activity against SARS-CoV-2 infected in African green monkey Vero cells assessed as reduction in virus-induced cytopathic effect incubated for 72 hrs by microscopic analysis. It is filed as functional, organism-based. The note with it: Severe acute respiratory syndrome coronavirus 2, Vero. For orientation: Damage to the host cells serves as the signal in cytopathic effect assays.

1 compound from ChEMBL document CHEMBL6120938, “Covalent small-molecule inhibitors of SARS-CoV-2 Mpro: Insights into their design, classification, biological activity, and binding interactions” (Eur J Med Chem, 2024) can be followed below.

Regarding `CC(C)C[C@H](NC(=O)OCC(C)(C)Sc1ccccc1)C(=O)N[C@H](C#N)C[C@@H]1CCNC1=O`, the results for the half-maximal inhibitory concentration (IC50) in test [1] and in test [2] were 490 nM and 410 nM, respectively. In addition, the EC50 (commonly the concentration needed to bring the measured effect to its halfway point) with SARS-CoV-2 stood at 60 nM.
